Measured values taken from article doi:10.1101/2023.07.20.549922v1 (biorxiv, 2023).

Tests used:
AmGSTD1 [1] = molecular target: T1, AmGSTD1 (Apis mellifera, UniProt A0A8U0Y9D4); assay: ANS displacement fluorescence, Ki from IC50; assay type: binding
T1 sequence (A0A8U0Y9D4 1-240): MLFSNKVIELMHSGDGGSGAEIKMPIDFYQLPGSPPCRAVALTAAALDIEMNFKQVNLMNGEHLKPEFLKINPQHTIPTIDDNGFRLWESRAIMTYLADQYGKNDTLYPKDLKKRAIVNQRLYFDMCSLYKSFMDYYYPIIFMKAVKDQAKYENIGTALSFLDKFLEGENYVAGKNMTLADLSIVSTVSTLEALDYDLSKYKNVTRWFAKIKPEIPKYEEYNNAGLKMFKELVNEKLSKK

AmGSTD1 [2] = molecular target: T1, AmGSTD1; assay: absorbance initial rates, Michaelis-Menten; conditions: 4 mM GSH; 100 mM KPi pH 6.5; 30 °C
AmGSTD1 [3] = molecular target: T1, AmGSTD1; assay: ANS displacement fluorescence; assay type: binding
AmGSTD1 [4] = molecular target: T1, AmGSTD1; assay: fluorescence saturation binding
purified protein [5] = substrate: CC(=O)Oc1ccc([N+](=O)[O-])cc1; assay: purified protein; conditions: 4 mM GSH, 100 mM KPi pH 6.5, 30 °C
purified protein [6] = substrate: CCCCCC(O)/C=C/C=O; assay: purified protein; conditions: 0.5 mM GSH, 100 mM KPi pH 6.5, 30 °C
purified protein [7] = substrate: S=C=NCCc1ccccc1; assay: purified protein; conditions: 4 mM GSH, 100 mM KPi pH 6.5, 30 °C

| Molecule | Ki (AmGSTD1 [1]) | IC50 (AmGSTD1 [3]) | also measured |
| --- | --- | --- | --- |
| O=Cc1cccc(Oc2ccccc2)c1 [3-phenoxybenzaldehyde] | 302 µM |  |  |
| O=[N+]([O-])NC1=NCCN1Cc1ccc(Cl)nc1 [imidacloprid] | 130 µM |  |  |
| O=[N+]([O-])c1ccc(Cl)c([N+](=O)[O-])c1 [CDNB] | 49.6 µM | 1220 ± 55 µM | Km (AmGSTD1 [2]): 525 ± 70 µM |
| O=C(O)COc1nc(Cl)c(Cl)cc1Cl [triclopyr] | 76.1 µM | 1860 ± 190 µM |  |
| O=S(=O)(O)c1cccc2cccc(Nc3ccccc3)c12 [ANS] |  |  | Kd (AmGSTD1 [4]): 2.09 ± 0.102 µM |
| CCCCC(C#N)(Cn1cncn1)c1ccc(Cl)cc1 (stereo not shown) [myclobutanil] | 148 µM |  |  |
| O=C(O)COc1ccc(Cl)cc1Cl [2,4-D] | 41.4 µM | 1010 ± 56 µM |  |
| Oc1nc(Cl)c(Cl)cc1Cl [TCP] | 25 µM | 613 ± 27 µM |  |
| CCCN=C=S [PITC] |  |  | Km (AmGSTD1 [2]): 1100 ± 140 µM |
| C=C(CC)C(=O)c1ccc(OCC(=O)O)c(Cl)c1Cl [ethacrynic acid] | 41.5 µM | 1020 ± 40 µM |  |
| AmGSTD1 (Apis mellifera) (protein) MLFSNKVIELMHSGDGGSGAEIKMPIDFYQLPGSPPCRAVALTAAALDIEMNFKQVNLMNGEHLKPEFLKINPQHTIPTIDDNGFRLWESRAIMTYLADQYGKNDTLYPKDLKKRAIVNQRLYFDMCSLYKSFMDYYYPIIFMKAVKDQAKYENIGTALSFLDKFLEGENYVAGKNMTLADLSIVSTVSTLEALDYDLSKYKNVTRWFAKIKPEIPKYEEYNNAGLKMFKELVNEKLSKK |  |  | Km (purified protein [5]): 1160 ± 90 µM; kcat (purified protein [5]): 6.7 ± 0.233 s⁻¹; Km (purified protein [6]): 106 ± 34 µM; kcat (purified protein [6]): 0.345 ± 0.0433 s⁻¹; Km (purified protein [7]): 819 ± 100 µM; kcat (purified protein [7]): 3.93 ± 0.2 s⁻¹ |
